Legend:
CCKB receptor = molecular target: T1, CCKB receptor (Mus musculus, UniProt P56481); experiment: radioligand binding assay at the CCKB receptor in mouse cortical membranes; conditions: [125I]-CCK8S 200pM, 150 min at 21 ± 3°C, read-out: CCKB pKi (converted)
T1 construct: The whole brains from male mice (CD1 22-25g; Charles River) were removed; from tissue; host or cells: cerebral cortex membranes of male CD1 mice
T1 sequence (P56481 1-453): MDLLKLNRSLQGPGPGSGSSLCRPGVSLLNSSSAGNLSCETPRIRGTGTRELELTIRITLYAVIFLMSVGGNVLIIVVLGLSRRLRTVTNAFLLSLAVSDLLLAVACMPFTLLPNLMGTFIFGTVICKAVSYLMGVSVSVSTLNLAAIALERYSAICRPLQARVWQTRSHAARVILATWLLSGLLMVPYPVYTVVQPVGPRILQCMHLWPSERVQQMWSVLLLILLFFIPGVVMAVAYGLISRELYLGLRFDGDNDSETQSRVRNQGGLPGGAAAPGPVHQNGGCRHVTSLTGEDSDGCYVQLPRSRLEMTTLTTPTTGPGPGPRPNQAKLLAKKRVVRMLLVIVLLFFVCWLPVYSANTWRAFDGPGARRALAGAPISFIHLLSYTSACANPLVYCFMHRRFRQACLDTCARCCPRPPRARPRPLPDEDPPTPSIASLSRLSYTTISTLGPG
In short: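 Radioligand binding was quantified by gamma counting after filtration through GF/B filters and cold 50 mM Tris-HCl (pH 7.4) washes. Tissue source was male CD1 mouse cortex, homogenised and twice centrifuged, then resuspended at 2 mg.ml^-1 original wet weight in pH 7.2 HEPES buffer containing bacitracin.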

gastrin = molecular target: T2, gastrin (Rattus norvegicus, UniProt P30553); experiment: gastrin antagonist activity in an immature rat stomach assay; conditions: isolated immature rat stomach, cumulative pentagastrin dose-response curves, acid secretion; read-out: Gastrin pKB (converted)
T2 construct: The stomach was excised and flushed with ca. 1 ml of unbuffered physiological saline solution; from tissue; host or cells: isolated whole stomach of immature rats (33-50 g, ca. 21 days old)
T2 sequence (P30553 1-452): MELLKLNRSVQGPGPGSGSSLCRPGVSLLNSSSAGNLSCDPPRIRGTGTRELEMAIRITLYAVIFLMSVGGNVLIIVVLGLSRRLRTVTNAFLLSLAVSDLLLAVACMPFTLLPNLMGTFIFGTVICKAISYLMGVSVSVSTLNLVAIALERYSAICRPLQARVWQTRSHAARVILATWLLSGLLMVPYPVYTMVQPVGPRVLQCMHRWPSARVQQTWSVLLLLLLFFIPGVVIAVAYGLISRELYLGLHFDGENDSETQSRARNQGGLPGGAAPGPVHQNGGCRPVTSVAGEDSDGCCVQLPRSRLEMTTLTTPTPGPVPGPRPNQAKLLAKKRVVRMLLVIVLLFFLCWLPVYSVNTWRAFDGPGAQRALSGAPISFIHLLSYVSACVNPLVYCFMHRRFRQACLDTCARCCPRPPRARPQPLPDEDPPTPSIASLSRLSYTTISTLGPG
In short: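 Isolated stomachs from immature rats (33-50 g, ca. 21 days) perfused at 1 ml min^-1 with O2-gassed unbuffered saline, perfusate pH monitored by electrode. After 120 min stabilisation, compounds added to serosal bath; cumulative pentagastrin dose-response curves begun 60 min later.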

CCKA = molecular target: T3, CCKA (Cavia porcellus, UniProt Q63931); experiment: CCKA binding assay in guinea-pig pancreas membranes; conditions: [125I]-CCK8(S) 200pM, containing 0.375 µM PD134,308, read-out: CCKA pKi (converted)
T3 construct: The pancreatata were removed from male guinea-pigs (200-300g; Dunkin Hartley); from tissue; host or cells: pancreas membranes of male Dunkin Hartley guinea-pigs
T3 sequence (Q63931 1-430): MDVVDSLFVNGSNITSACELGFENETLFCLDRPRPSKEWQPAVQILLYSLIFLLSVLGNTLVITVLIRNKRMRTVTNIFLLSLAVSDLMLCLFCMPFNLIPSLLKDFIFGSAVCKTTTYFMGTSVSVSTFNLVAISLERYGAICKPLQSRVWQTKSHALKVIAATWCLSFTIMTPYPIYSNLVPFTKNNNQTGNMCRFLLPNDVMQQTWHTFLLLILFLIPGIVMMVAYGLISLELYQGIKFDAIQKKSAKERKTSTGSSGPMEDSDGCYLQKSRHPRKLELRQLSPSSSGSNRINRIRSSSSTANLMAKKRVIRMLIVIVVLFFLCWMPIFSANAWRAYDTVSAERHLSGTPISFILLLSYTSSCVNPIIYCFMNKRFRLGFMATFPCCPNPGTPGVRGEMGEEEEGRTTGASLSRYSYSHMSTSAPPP
In short: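 Competition binding of [125I]-CCK8(S) (200 pM in the added solution) to male guinea-pig pancreas membranes (1 mg/ml wet weight) containing 0.375 µM PD134,308, in HEPES buffer pH 7.2. Incubated 150 min at 21 ± 3°, then filtered. Bound radioactivity gamma-counted; non-specific binding defined with 100nM L-364,718.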

O=C(O)c1cc(NC(=O)[C@H](Cc2ccccc2F)NC(=O)C2C3c4ccccc4C(c4ccccc43)C2C(=O)NCC23CC4CC(CC(C4)C2)C3)cc(C(=O)O)c1 (single isomer, unassigned) [Example 17, cis-7-(1S-(3,5-dicarboxyphenylaminocarbonyl)-2-(2-fluorophenyl)ethylaminocarbonyl)-8-(1-adamantanemethylaminocarbonyl) -2,3,5,6-dibenzobicyclo[2.2.2]octane]
Ki (CCKB receptor): 6.31 nM | Kb (gastrin): 10 nM | Ki (CCKA): 794 nM

O=C(O)c1cc(NC(=O)[C@H](Cc2ccc(Cl)cc2)NC(=O)C2C3c4ccccc4C(c4ccccc43)C2C(=O)NCC23CC4CC(CC(C4)C2)C3)cc(C(=O)O)c1 (single isomer, unassigned) [Example 11, cis-7-(1S-(3,5-dicarboxyphenylaminocarbonyl)-2-(4-chlorophenyl)ethylaminocarbonyl)-8-(1-adamantanemethylaminocarbonyl) -2,3,5,6-dibenzobicyclo[2.2.2]octane]
Ki (CCKB receptor): 251 nM | Kb (gastrin): 100 nM | Ki (CCKA): 50.1 nM

CC(C)(NC(=O)C1C2c3ccccc3C(c3ccccc32)C1C(=O)N[C@@H](Cc1ccccc1)C(=O)Nc1cc(C(=O)O)cc(C(=O)O)c1)C12CC3CC(CC(C3)C1)C2 (stereo partly drawn) [Example 49, cis-7-(1S-(3,5-dicarboxyphenylaminocarbonyl)-2-phenylethylaminocarbonyl)-8-(1-(1-adamantane)-1-methyl-ethylaminocarbonyl) -2,3,5,6-dibenzobicyclo[2.2.2]octane]
Ki (CCKB receptor): 63.1 nM | Kb (gastrin): 10 nM | Ki (CCKA): 2510 nM

— patent EP0719251B1, “BICYCLO (2.2.2) OCTANE DERIVATIVES CHOLECYSTOKININ AND/OR GASTRIN ANTAGONISTS” (JAMES BLACK FOUNDATION LIMITED, priority 1993, dated 1995)
